Data: ChEMBL document CHEMBL1201862, “PubChem BioAssay data set” (2004)
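Step 1: Grow cells in 96-well plates. Step 2: Expose to compound for 48 hours at 5 concentrations. Step 3: Interpolate endpoints linearly; if unreached, use highest concentration. At the GI50, growth is halved.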 Active and inactive are the calls of the source. Rule as the data show it: active = GI50 up to about 1.1 µM and inactive = higher.

Key:
Assay in all cases: growth of human tumour cells (NCI), 48 h
M14 = system: M14
KM12 = system: KM12
SK-MEL-5 = system: SK-MEL-5
OVCAR-8 = system: OVCAR-8
NCI-H226 = system: NCI-H226
SNB-75 = system: SNB-75
RXF 393 = system: RXF 393
COLO 205 = system: COLO 205
OVCAR-5 = system: OVCAR-5
UACC-257 = system: UACC-257
MDA-MB-435 = system: MDA-MB-435
SK-MEL-2 = system: SK-MEL-2
RPMI-8226 = system: RPMI-8226
OVCAR-4 = system: OVCAR-4
PC-3 = system: PC-3
UO-31 = system: UO-31
HOP-62 = system: HOP-62
SK-MEL-28 = system: SK-MEL-28
HOP-92 = system: HOP-92
786-0 = system: 786-0
DU-145 = system: DU-145
A549 = system: A549
MOLT-4 = system: MOLT-4
MDA-MB-231 = system: MDA-MB-231
NCI-H522 = system: NCI-H522
K562 = system: K562
CAKI-1 = system: CAKI-1
TK-10 = system: TK-10
CCRF-CEM = system: CCRF-CEM
NCI/ADR-RES = system: NCI/ADR-RES
SNB-19 = system: SNB-19
SF-539 = system: SF-539
SR = system: SR
T47D = system: T47D
NCI-H23 = system: NCI-H23
BT-549 = system: BT-549
EKVX = system: EKVX
SW-620 = system: SW-620
IGROV-1 = system: IGROV-1
U-251 = system: U-251
SF-268 = system: SF-268
ACHN = system: ACHN
A498 = system: A498
MDA-N = system: MDA-N
HCC 2998 = system: HCC 2998
SK-OV-3 = system: SK-OV-3
SN12C = system: SN12C
HT-29 = system: HT-29
HL-60 = system: HL-60
OVCAR-3 = system: OVCAR-3
HCT-116 = system: HCT-116
UACC-62 = system: UACC-62
NCI-H460 = system: NCI-H460
Malme-3M = system: Malme-3M
HCT-15 = system: HCT-15
Hs-578T = system: Hs-578T
SF-295 = system: SF-295
LOX IMVI = system: LOX IMVI
MCF7 = system: MCF7

## COc1ccc2c(c1)O[C@@H]1[C@@H](OC3OC(CO)C(O)C(O)C3O)Oc3cc(OC)c(OC)cc3[C@]1(O)C2=O (some centres not stated)
M14
  GI50: > 100 µM (inactive)
KM12
  GI50: > 100 µM (inactive)
SK-MEL-5
  GI50: > 100 µM (inactive)
OVCAR-8
  GI50: > 100 µM (inactive)
NCI-H226
  GI50: 34 µM (inactive)
SNB-75
  GI50: > 100 µM (inactive)
RXF 393
  GI50: > 100 µM (inactive)
COLO 205
  GI50: > 100 µM (inactive)
OVCAR-5
  GI50: > 100 µM (inactive)
UACC-257
  GI50: > 100 µM (inactive)
MDA-MB-435
  GI50: > 100 µM (inactive)
SK-MEL-2
  GI50: > 100 µM (inactive)
RPMI-8226
  GI50: > 100 µM (inactive)
OVCAR-4
  GI50: > 100 µM (inactive)
PC-3
  GI50: > 100 µM (inactive)
UO-31
  GI50: > 100 µM (inactive)
HOP-62
  GI50: > 100 µM (inactive)
SK-MEL-28
  GI50: 25.8 µM (inactive)
HOP-92
  GI50: > 100 µM (inactive)
786-0
  GI50: > 100 µM (inactive)
DU-145
  GI50: > 100 µM (inactive)
A549
  GI50: > 100 µM (inactive)
MOLT-4
  GI50: > 100 µM (inactive)
MDA-MB-231
  GI50: > 100 µM (inactive)
NCI-H522
  GI50: > 100 µM (inactive)
K562
  GI50: > 100 µM (inactive)
CAKI-1
  GI50: > 100 µM (inactive)
TK-10
  GI50: > 100 µM (inactive)
CCRF-CEM
  GI50: > 100 µM (inactive)
NCI/ADR-RES
  GI50: > 100 µM (inactive)
SNB-19
  GI50: > 100 µM (inactive)
SF-539
  GI50: > 100 µM (inactive)
SR
  GI50: > 100 µM (inactive)
T47D
  GI50: > 100 µM (inactive)
NCI-H23
  GI50: > 100 µM (inactive)
BT-549
  GI50: > 100 µM (inactive)
EKVX
  GI50: > 100 µM (inactive)
SW-620
  GI50: 17.5 µM (inactive)
IGROV-1
  GI50: > 100 µM (inactive)
U-251
  GI50: > 100 µM (inactive)
SF-268
  GI50: > 100 µM (inactive)
ACHN
  GI50: > 100 µM (inactive)
A498
  GI50: > 100 µM (inactive)
MDA-N
  GI50: > 100 µM (inactive)
HCC 2998
  GI50: > 100 µM (inactive)
SK-OV-3
  GI50: > 100 µM (inactive)
SN12C
  GI50: > 100 µM (inactive)
HT-29
  GI50: > 100 µM (inactive)
HL-60
  GI50: 1.11 µM (active)
OVCAR-3
  GI50: > 100 µM (inactive)
HCT-116
  GI50: > 100 µM (inactive)
UACC-62
  GI50: > 100 µM (inactive)
NCI-H460
  GI50: > 100 µM (inactive)
Malme-3M
  GI50: > 100 µM (inactive)
HCT-15
  GI50: > 100 µM
Hs-578T
  GI50: > 100 µM (inactive)
SF-295
  GI50: > 100 µM (inactive)
LOX IMVI
  GI50: > 100 µM (inactive)

## C=CCN(c1cc(OCc2ccccc2)c2c(c(C)cn2S(=O)(=O)c2ccc([N+](=O)[O-])cc2)c1[N+](=O)[O-])S(C)(=O)=O
M14
  GI50: 29.1 µM (inactive)
KM12
  GI50: 4.86 µM (inactive)
MCF7
  GI50: > 100 µM (inactive)
SK-MEL-5
  GI50: 43.7 µM (inactive)
OVCAR-8
  GI50: > 100 µM (inactive)
NCI-H226
  GI50: > 100 µM (inactive)
SNB-75
  GI50: > 37.8 µM (inactive)
RXF 393
  GI50: > 100 µM (inactive)
COLO 205
  GI50: > 100 µM (inactive)
OVCAR-5
  GI50: > 100 µM (inactive)
UACC-257
  GI50: > 100 µM (inactive)
MDA-MB-435
  GI50: 1.47 µM (inactive)
SK-MEL-2
  GI50: > 100 µM (inactive)
RPMI-8226
  GI50: > 100 µM (inactive)
OVCAR-4
  GI50: > 100 µM (inactive)
PC-3
  GI50: > 100 µM (inactive)
UO-31
  GI50: > 100 µM (inactive)
HOP-62
  GI50: > 100 µM (inactive)
SK-MEL-28
  GI50: > 100 µM (inactive)
HOP-92
  GI50: > 100 µM (inactive)
786-0
  GI50: > 100 µM (inactive)
DU-145
  GI50: > 100 µM (inactive)
A549
  GI50: > 84.5 µM (inactive)
MOLT-4
  GI50: > 100 µM (inactive)
MDA-MB-231
  GI50: > 89.5 µM (inactive)
NCI-H522
  GI50: > 100 µM (inactive)
K562
  GI50: 5.08 µM (inactive)
CAKI-1
  GI50: > 100 µM (inactive)
TK-10
  GI50: > 100 µM (inactive)
NCI/ADR-RES
  GI50: > 100 µM (inactive)
SNB-19
  GI50: > 100 µM (inactive)
SF-539
  GI50: > 100 µM (inactive)
T47D
  GI50: > 100 µM (inactive)
NCI-H23
  GI50: > 100 µM (inactive)
BT-549
  GI50: > 100 µM (inactive)
EKVX
  GI50: > 100 µM (inactive)
IGROV-1
  GI50: > 100 µM (inactive)
U-251
  GI50: > 100 µM (inactive)
SF-268
  GI50: > 100 µM (inactive)
ACHN
  GI50: > 100 µM (inactive)
MDA-N
  GI50: 4.07 µM (inactive)
HCC 2998
  GI50: > 100 µM (inactive)
SK-OV-3
  GI50: > 100 µM (inactive)
SN12C
  GI50: > 100 µM (inactive)
HT-29
  GI50: 8.77 µM (inactive)
OVCAR-3
  GI50: > 100 µM (inactive)
HCT-116
  GI50: > 100 µM (inactive)
UACC-62
  GI50: > 100 µM (inactive)
NCI-H460
  GI50: > 100 µM (inactive)
Malme-3M
  GI50: > 100 µM (inactive)
HCT-15
  GI50: 31.6 µM
Hs-578T
  GI50: > 100 µM (inactive)
SF-295
  GI50: > 78.5 µM (inactive)
LOX IMVI
  GI50: > 100 µM (inactive)
